According to US6121512A, “Cytochrome P-450 constructs and method of producing herbicide-resistant transgenic plants” (North Carolina State University, priority 1997, dated 2000):

What was measured:
[1] = test system: excised leaves of control tobacco plants transformed with pBI121; experiment: In vivo herbicide metabolism assay, excised leaves of control tobacco; parameters: species or system Nicotiana tabacum cv SR1; details: after 14 hours; 1.2 nmol herbicide; standard error in parentheses; three pBI121 control plants
Procedure: (§1) Seeds from primary transgenic tobacco plants transformed with CYP71A10 and control plants transformed with the pBI121 vector were grown in Petri dishes containing MS salts and 100 μg/ml kanamycin. At five weeks post-seeding, kanamycin-resistant plantlets were transplanted into pots containing soil and grown an additional two weeks. Single leaves of approximately 10 cm^2 in size were excised and their petioles inserted into 100 μl of H2 O containing radiolabeled herbicide. The leaves were placed in a growth chamber maintaining a temperature of 27° C. and incubated until the entire volume of the herbicide solution was drawn up by the transpirational stream of the leaves (about 3 hrs). The leaves were subsequently transferred into an Eppendorf tube containing distilled water and further incubated for a total of 14 hours.
(§2) [^14 C]-labeled herbicide was extracted from the leaves by grinding for 5 minutes in 250 μl methanol with a plastic pellet pestle driven by an electric drill. After centrifugation for 3 minutes at 14,000 g, 75μl of the supernatant was spotted on a Whatman K6F silica plate and developed in a solvent system containing chloroforn/ethanol/acetic acid 135:10:15 (v/v/v). The separated herbicide derivatives were visualized using an imaging scanner. Substrate conversion was quantified based on the amount of herbicide absorbed, and the ratios of the parent compound and the produced metabolites determined from the TLC profiles.

[2] = test system: excised leaves of transgenic tobacco plant 25/2 progeny (CYP71A10-transformed); experiment: In vivo herbicide metabolism assay, excised leaves of CYP71A10-transformed tobacco; parameters: species or system Nicotiana tabacum cv SR1; details: after 14 hours; 1.2 nmol herbicide; standard error in parentheses; four 25/2 plants
Procedure: as §1, §2

[3] = target: T1, CYP73A1 (trans-cinnamic acid hydroxylase) (Helianthus tuberosus, UniProt Q04468); details: CYP73A1 expressed in yeast, chlortoluron ring-methyl hydroxylation; cited from earlier work
T1 construct: host or cells: yeast
T1 sequence (Q04468 1-505): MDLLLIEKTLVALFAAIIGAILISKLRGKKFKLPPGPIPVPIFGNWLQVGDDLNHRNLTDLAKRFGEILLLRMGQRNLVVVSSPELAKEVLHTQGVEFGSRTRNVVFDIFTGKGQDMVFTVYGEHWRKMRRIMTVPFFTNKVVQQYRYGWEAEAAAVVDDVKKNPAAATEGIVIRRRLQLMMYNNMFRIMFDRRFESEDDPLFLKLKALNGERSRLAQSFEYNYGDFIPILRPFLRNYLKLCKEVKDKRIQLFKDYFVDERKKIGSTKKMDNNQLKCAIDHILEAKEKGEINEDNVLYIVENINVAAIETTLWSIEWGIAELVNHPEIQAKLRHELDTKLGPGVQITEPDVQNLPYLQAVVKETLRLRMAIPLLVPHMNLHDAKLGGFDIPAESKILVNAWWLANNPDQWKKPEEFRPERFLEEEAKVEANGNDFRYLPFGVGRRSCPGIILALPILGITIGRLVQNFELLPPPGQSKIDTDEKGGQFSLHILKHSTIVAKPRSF

[4] = test system: CYP71A10-transformed tobacco; experiment: Herbicide tolerance, seeds germinated on herbicide medium, CYP71A10-transformed tobacco; assay type: in vivo, Nicotiana tabacum cv SR1; details: 1.0 μM chlortoluron in medium
Procedure: T1 generation seeds from CYP71A10-transformed tobacco and pBI121-transformed control plants were placed onto Petri dishes containing MS salts and linuron (using its commercial formulation LOROX 50 DF) at active ingredient concentrations ranging from 0.25 to 3.0 μM. Chlortoluron was added at 0, 1.0, 5.0 and 10.0 μM concentrations using a 99.5% pure analytical standard. The Petri dishes were incubated in a growth chamber maintaining a constant temperature of 27° C. and a 16/8 hour light/dark cycle. The phytotoxic effects of the treatments were determined visually by comparison to control plants and plants grown in the absence of the herbicide. All treatments were repeated at least twice.

Cc1ccc(NC(=O)N(C)C)cc1Cl [Chlortoluron, chlortoluron]
% of herbicide metabolized, Control [1]: 39 (7.5) % | % of herbicide metabolized, CYP71A10-transformed [2]: 85 (8.1) % | turnover number of the heterologously expressed enzyme [3]: 0.014 /min | growth of the 25/2 plants [4]: modestly inhibited
